Patent publication US11596632B2, “JAK1 pathway inhibitors for the treatment of gastrointestinal disease” (Incyte Corporation, priority 2018, dated 2023)
Read-outs that look alike come from different tables or passages of the source.

Key:
RA patients = assay: Clinical study in rheumatoid arthritis patients (ACR responses, ANC); assay type: in vivo, human
Procedure: However, the greatest inhibition appeared to be observed following 200 mg BID dosing. Also noteworthy is that the 100 mg QD dose had less TPO induced pSTAT3 inhibition than placebo.

[1] = Plasma pharmacokinetics after single oral sustained release dose; assay type: in vivo, human
Procedure: The method used for analyzing Compound 1 in human plasma has been validated. Briefly, 50 μL of human plasma sample is placed in a 96-well plate. After an aliquot of 50 μL of internal standard (dissolved in 50:50 acetonitrile:water) is added, an aliquot of 100 μL of 0.1 M NaHCO3 is added. Then 800 μL of methyl-t-butyl ether (MtBE) is added and the samples are covered and vortexed. After centrifugation, 700 μL of MtBE layer is transferred to a clean 96-well plate. The samples are then dried under nitrogen at approximately 50° C. An aliquot of 250 μL of reconstitution solution (acetonitrile:water, 50:50, v/v) is then added to each sample. The plate is placed in the autosampler tray and injected into an LC-MS/MS for analysis. The LC-MS/MS analysis is carried out with an AB Sciex 4000 or a Sciex 6500 QTRAP mass spectrometer coupled with an HPLC pump and an autosampler. The chromatographic separation is achieved on a Waters T3 (50 mm×2.1 mm) HPLC column, with isocratic elution. The mass spectrometer is operated in positive ESI mode. The multiple reaction monitoring (MRM) transition is m/z 554.1→186.0 for Compound 1 and m/z 558.1→190.0 for the internal standard. Peak-area integrations are performed using the Analyst software and concentrations are calculated in Watson LIMS. Concentrations are calculated using 10 concentration levels ranging from 5 nM to 5000 nM with weighted linear regression, according to the following formula: y=ax+b(weighting factor=1/x^2) • where: x=Compound 1 concentration in nM; y=Peak-area ratio; a=Slope; and b=Intercept.
The lower limit of quantitation is 5 nM and the calibration curve ranges from 5 nM to 5000 nM for Compound 1 in human plasma.
Methods: Compound 1 concentrations in plasma and feces (colonic surrogate) were determined following a single sustained release 25 mg oral dose (see, e.g., Example B, 25 mg SR composition). Compound 1 concentrations in plasma following a single 100 mg dose were also determined in a separate study (see, e.g., Example C for measuring concentrations of Compound 1 in plasma). Ex vivo study: Colon tissue samples from healthy and UC subjects (2/group) were mounted on a vertical Ussing diffusion chamber. [^14C]Compound 1 was applied to the apical side of the chamber at 100 and 1000 nM and incubated for 1 h. Samples were collected from the donor and receiver sides for determination of Compound 1 concentration. The colonic tissue was snap frozen for quantitative autoradiography.
Standard noncompartmental pharmacokinetic methods were used to analyze Compound 1 plasma concentrations. The Cmax (maximum plasma concentration) and Tmax (time at which the maximum plasma concentration occurs) were taken directly from the observed plasma concentration data. The terminal-phase disposition rate constant (λZ) was estimated using a log-linear regression of the concentration data in the terminal disposition phase, and t1/2 was estimated as ln(2)/λZ. AUCall is defined as the area under the plasma concentration-time curve from time 0 to the last observation calculated using the linear trapezoidal rule for increasing concentrations and logarithmic trapezoidal rule for decreasing concentrations. AUC0-inf was calculated as AUC0-t+Ct/λZ, where by AUC0-t is defined as the area under the plasma concentration-time curve from time 0 to the last measureable concentration (also calculated using the linear-up/log-down trapezoidal rule) and Ct is the last measurable concentration. Cl/F is the apparent clearance and is calculated as Dose/AUC0-inf. Vz/F is the apparent volume of distribution based on the terminal phase calculated as Dose/(λZ*AUC0-inf).

[2] = single 25 mg SR oral dose, N=12

For `N#CCC1(n2cc(-c3ncnc4[nH]ccc34)cn2)CN(C2CCN(C(=O)c3ccnc(C(F)(F)F)c3F)CC2)C1` [Compound 1, {1-{1-[3-Fluoro-2-(trifluoromethyl)isonicotinoyl]piperidin-4-yl}-3-[4-(7H-pyrrolo[2,3-d]pyrimidin-4-yl)-1H-pyrazol-1-yl]azetidin-3-yl}acetonitrile], the “ACR20, ACR50, and ACR70 responses versus placebo” value (RA patients; 600 mg QD, Day 84 visit) was “statistically significant differences in ACR20, ACR50, and ACR70 responses”, the “decreased ANC” value (RA patients; RA patients) was “several cases of decreased ANC but no dose-dependent trend was observed” and the Cmax ([1]; human, plasma, 100 mg, plasma, single 100 mg dose, separate study, read-out: Cmax, mean (SD)) was 84.4 nM. For the same compound, the AUC(0-inf) ([1]; human, plasma, po, 25 mg, plasma, single 25 mg SR oral dose, N=12, read-out: AUC0-inf, Geometric Mean) was 0.111 µM·h, the AUC(0-inf) ([1]; human, plasma, po, 25 mg, plasma, single 25 mg SR oral dose, N=12, read-out: AUC0-inf, Mean) was 0.117 µM·h and the AUC ([1]; human, plasma, po, 25 mg, plasma, single 25 mg SR oral dose, N=12, read-out: AUCall, Geometric Mean) was 0.105 µM·h. The AUC ([1]; human, plasma, po, 25 mg, plasma, single 25 mg SR oral dose, N=12, read-out: AUCall, Mean) was 0.11 µM·h, the Cmax ([1]; human, plasma, po, 25 mg, plasma, single 25 mg SR oral dose, N=12, read-out: Cmax, Geometric Mean) was 17.2 nM and the Cmax ([1]; human, plasma, po, 25 mg, plasma, single 25 mg SR oral dose, N=12, read-out: Cmax, Mean) was 18.9 nM. The half-life ([1]; human, plasma, po, 25 mg, single 25 mg SR oral dose, N=12, read-out: Half-life or t1/2, Geometric Mean (converted)) was 9.04 h, the half-life ([1]; human, plasma, po, 25 mg, single 25 mg SR oral dose, N=12, read-out: Half-life or t1/2, Mean (converted)) was 12.3 h and the Vd/F ([1]; human, plasma, po, 25 mg, single 25 mg SR oral dose, N=12, read-out: Vz/F, Geometric Mean) was 5290 L. For the same compound, the Vd/F ([1]; human, plasma, po, 25 mg, single 25 mg SR oral dose, N=12, read-out: Vz/F, Mean) was 7360 L, the Tmax ([1]; human, plasma, single 25 mg SR oral dose, N=12 (min 1, max 4), read-out: Tmax, median) was 2 h and the “dose proportionality of PK” value ([1]; humans) was “supralinear PK with regard to dose”. For the same compound, the “oral bioavailability in humans” value ([1]; in vivo, po) was “moderate”, the “Cl/F, Geometric Mean” value [1, 2] was 405 L/h and the “Cl/F, Mean” value [1, 2] was 424 L/h.
